This passage reports IC50 results from US6685617B1, “Inhibitors of α4β1 mediated cell adhesion” (Pharmacia & Upjohn Company, priority 1998, dated 2004).

The target in the first experiment is T1, α4β1 integrin (Jurkat cell adhesion to immobilized CS-1 derived peptide CLHPGEILDVPST) (Homo sapiens, UniProt P05556+P13612).
T1 construct: 100 μl of Jurkat cells (2.5×10^6 cells/ml) in DMEM plus BSA; host or cells: Jurkat T-cell line
T1 sequence (P13612 34-1032): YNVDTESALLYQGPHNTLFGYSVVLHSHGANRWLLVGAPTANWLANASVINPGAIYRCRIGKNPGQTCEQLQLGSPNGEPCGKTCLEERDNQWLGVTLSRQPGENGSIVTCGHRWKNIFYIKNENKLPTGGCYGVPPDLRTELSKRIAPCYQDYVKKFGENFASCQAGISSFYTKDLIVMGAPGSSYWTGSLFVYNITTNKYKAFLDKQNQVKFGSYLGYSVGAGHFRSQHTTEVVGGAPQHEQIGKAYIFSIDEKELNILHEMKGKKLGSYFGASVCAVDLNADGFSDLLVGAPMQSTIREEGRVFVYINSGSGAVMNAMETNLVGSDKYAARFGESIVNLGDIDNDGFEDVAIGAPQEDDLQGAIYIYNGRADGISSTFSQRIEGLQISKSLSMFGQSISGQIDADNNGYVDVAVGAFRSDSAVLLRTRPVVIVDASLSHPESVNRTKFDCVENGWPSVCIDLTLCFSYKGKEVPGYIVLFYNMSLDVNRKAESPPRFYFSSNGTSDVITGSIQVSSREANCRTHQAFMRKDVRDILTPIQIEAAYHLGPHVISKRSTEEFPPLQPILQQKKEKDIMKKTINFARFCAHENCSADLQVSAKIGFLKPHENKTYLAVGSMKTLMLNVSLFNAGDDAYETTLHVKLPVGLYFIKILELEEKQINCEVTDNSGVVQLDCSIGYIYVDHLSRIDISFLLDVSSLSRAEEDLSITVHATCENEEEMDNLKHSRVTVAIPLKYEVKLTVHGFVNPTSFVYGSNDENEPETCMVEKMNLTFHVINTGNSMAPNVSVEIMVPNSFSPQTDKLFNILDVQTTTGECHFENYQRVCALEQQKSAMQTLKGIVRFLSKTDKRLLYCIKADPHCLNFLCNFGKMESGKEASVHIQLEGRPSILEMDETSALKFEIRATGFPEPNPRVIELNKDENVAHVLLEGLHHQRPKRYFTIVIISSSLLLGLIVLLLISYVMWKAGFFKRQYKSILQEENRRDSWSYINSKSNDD
T1 sequence (P05556 21-798): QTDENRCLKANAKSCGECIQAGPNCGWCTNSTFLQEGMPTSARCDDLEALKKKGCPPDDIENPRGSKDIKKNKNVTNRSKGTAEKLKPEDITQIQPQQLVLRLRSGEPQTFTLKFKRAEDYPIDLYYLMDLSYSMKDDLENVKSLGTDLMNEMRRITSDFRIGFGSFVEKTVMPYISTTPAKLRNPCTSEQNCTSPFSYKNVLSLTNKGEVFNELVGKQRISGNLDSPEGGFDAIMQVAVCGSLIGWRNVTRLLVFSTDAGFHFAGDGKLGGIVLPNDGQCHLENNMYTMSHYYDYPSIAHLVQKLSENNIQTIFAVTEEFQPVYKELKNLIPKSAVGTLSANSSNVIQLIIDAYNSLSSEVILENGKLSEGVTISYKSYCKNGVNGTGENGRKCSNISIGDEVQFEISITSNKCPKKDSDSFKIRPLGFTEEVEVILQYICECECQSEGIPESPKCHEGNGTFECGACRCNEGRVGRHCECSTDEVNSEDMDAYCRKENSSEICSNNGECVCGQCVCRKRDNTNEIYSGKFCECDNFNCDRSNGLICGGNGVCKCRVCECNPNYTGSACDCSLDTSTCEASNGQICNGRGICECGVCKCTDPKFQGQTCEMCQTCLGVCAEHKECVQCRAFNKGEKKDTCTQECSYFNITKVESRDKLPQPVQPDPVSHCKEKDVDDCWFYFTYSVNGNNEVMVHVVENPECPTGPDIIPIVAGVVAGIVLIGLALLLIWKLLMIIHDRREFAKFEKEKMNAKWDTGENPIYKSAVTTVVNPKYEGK
The experiment in a line: Jurkat-CS-1 assay. It counts as cell-based. The following applies: Jurkat cells on CS-1 peptide coated plates; read-out: JK/CS-1 (Jurkat CS-1 Assay IC50 value range). The procedure: The CS-1 derived peptide, CLHPGEILDVPST, and the scrambled control peptide, CLHGPIELVSDPT, were synthesized on a Beckman 990 synthesizer using t-Boc methodology. The peptides were immobilized onto microtiter plates using the heterobifunctional crosslinker 3-(2-pyridyldithio)propionic acid N-hydroxysuccinimide ester (SPDP) as reported by Pierschbacher et al., Proc. Natl. Acad. USA, 80:1224-1227 (1983). Microtiter plates were coated with 20 μg/ml HSA for 2 hr. at room temperature, washed once with PBS and derivatized with 10 μg/ml SPDP for 1 hr. After washing, 100 μl of a 100 μg/ml cysteine containing peptide solution which had been recently dissolved was added to the wells and allowed to crosslink to the plates overnight at 4° C. Unbound peptide was removed from plates by washing with PBS. To block non-reacted sites, the plates are coated with 100 μl of a 2.5 mg/ml BSA solution in PBS for 1 hr. at 37° C. 100 μl of Jurkat cells (2.5×10^6 cells/ml) in DMEM plus BSA (2.5 mg/ml) was mixed with an appropriate concentration of the compound to be tested and the mixture was added to peptide coated dishes and incubated for 1 hr. at 37° C. Generally 100, 20, 5 and 1.25 μM concentrations of the compound were tested.
Following this incubation the plates were washed once with PBS and the attached cells were fixed with 3% paraformaldehyde in PBS and stained with 0.5% toluidine blue in 3.7% formaldehyde. The cells were stained overnight at room temperature and the optical density at 590 nm of toluidine blue stained cells was determined using a vertical pathway spectrophotometer to quantitate attachment (VMAX Kinetic Microplate Reader, Molecular Devices, Menlo Park, Calif.). This procedure is a modification of a previously published method (Cardarelli et al, J. Biol. Chem., 269:18668-18673 (1994) and Cardarelli et al, Proc. Natl. Acad. Sci. USA, 83:2647-2651 (1986)).
For the compound `COC(=O)[C@H](Cc1ccc(NC(=O)c2c(Cl)cccc2Cl)cc1)NC(=O)[C@H]1CSCN1C(=O)OC(C)(C)C` (relative stereo) [Example 1, [S-(R*,R*)]-4-[[[1-[[4-[(2,6-Dichlorobenzoyl)amino]phenyl]methyl]-2-methoxy-2-oxoethyl]amino]carbonyl]-3-thiazolidinecarboxylic Acid 3-(1,1-Dimethylethyl)ester], the IC50 was 50 to 750 nM.
Same read-out and setting: the result for `CCOC(=O)N1CSC[C@@H]1C(=O)N[C@@H](Cc1ccc(NC(=O)c2c(Cl)cccc2Cl)cc1)C(=O)OC` (relative stereo) [Example 4, [S-(R*,R*)]-4-[[[1-[[4-[(2,6-Dichlorobenzoyl)amino]phenyl]methyl]-2-methoxy-2-oxoethyl]amino]carbonyl]-3-thiazolidinecarboxylic Acid 3-Ethyl Ester] reads no more than 50 nM; that for `COC(=O)[C@H](Cc1ccc(OCc2c(Cl)cccc2Cl)cc1)NC(=O)[C@H]1CSCN1C(=O)OCCN1CCCCC1` (relative stereo) [Example 5, [S-(R*,R*)]-4-[[[1-[4-[(2,6-Dichlorophenyl)methoxy]phenyl)methyl]-2-methoxy-2-oxoethyl]amino]carbonyl]-3-thiazolidinecarboxylic Acid 3-[2-(1-piperidinyl)ethyl]ester], 50 to 750 nM.
Regarding `CCOC(=O)N1CSC[C@@H]1C(=O)N[C@@H](Cc1ccc(NC(=O)c2ccccc2C(F)(F)F)cc1)C(=O)O` [Example 274, (4S)-4-[[[(1S)-1-Carboxy-2-[4-[[2-(trifluoromethyl)benzoyl]amino]phenyl]ethyl]amino]carbonyl]-3-thiazolidinecarboxylic Acid 3-Ethyl Ester], the IC50 was 50 to 750 nM.
Same read-out and setting: the result for `CCOC(=O)N1CSC[C@@H]1C(=O)N[C@@H](Cc1ccc(NC(=O)c2c(Cl)cc(Cl)cc2Cl)cc1)C(=O)O` [Example 275, (4S)-4-[[[(1S)-1-Carboxy-2-[4-[(2,4,6-trichlorobenzoyl)amino]phenyl]ethyl]amino]-carbonyl]-3-thiazolidinecarboxylic Acid 3-Ethyl Ester] reads no more than 50 nM; that for `CCOC(=O)N1CSC[C@@H]1C(=O)N[C@@H](Cc1ccc(NS(=O)(=O)c2cc(Cl)ccc2Cl)cc1)C(=O)O` [Example 276, (4S)-4-[[[(1S)-1-Carboxy-2-[4-[[(2,5-dichlorophenyl)sulfonyl]amino]phenyl]ethyl]amino]carbonyl]-3-thiazolidinecarboxylic Acid 3-Ethyl Ester], no less than 750 nM.
On the same count and under the same terms, the result for `CCOC(=O)N1CSC[C@@H]1C(=O)N[C@@H](Cc1ccc(NC(=O)Nc2c(Cl)cccc2Cl)cc1)C(=O)O` [Example 277, (4S)-4-[[[(1S)-1-Carboxy-2-[4-[[[(2,6-dichlorophenyl)amino]carbonyl]amino]phenyl]ethyl]amino]carbonyl]-3-thiazolidinecarboxylic Acid 3-Ethyl Ester] reads no less than 750 nM; that for `CCOC(=O)N1CSC[C@@H]1C(=O)N[C@@H](Cc1ccc(C(=O)Nc2c(Cl)cc(Cl)cc2Cl)cc1)C(=O)O` [Example 278, (4S)-4-[[[(1S)-1-Carboxy-2-[4-[[(2,4,6-trichlorophenyl)amino]carbonyl]phenyl]ethyl]amino]carbonyl]-3-thiazolidinecarboxylic Acid 3-Ethyl Ester], 50 to 750 nM.
On the same count and under the same terms, to `O=C(Nc1ccc(C[C@H](NC(=O)C2CS[C@H]3CNC(=O)N23)C(=O)O)cc1)c1c(Cl)cccc1Cl` (stereo partly drawn) [Example 279, 4-[(2,6-Dichlorobenzoyl)amino]-N-[[(7aS)-hexahydro-5-oxoimidazo[5,1-b]thiazol-3-yl]carbonyl]-L-phenylalanine] belongs 50 to 750 nM.
`O=C(Nc1ccc(C[C@H](NC(=O)C2CS[C@@H]3CNC(=O)N23)C(=O)O)cc1)c1c(Cl)cccc1Cl` (stereo partly drawn) [Example 280, 4-[(2,6-Dichlorobenzoyl)amino]-N-[[(7aR)-hexahydro-5-oxoimidazo[5,1-b]thiazol-3-yl]carbonyl]-L-phenylalanine]: the IC50 lay within 50 to 750 nM.
Still for that read-out and setting: the result for `CCOC(=O)N1C(c2ccncc2)SC[C@@H]1C(=O)N[C@@H](Cc1ccc(NC(=O)c2c(Cl)cccc2Cl)cc1)C(=O)O` (stereo partly drawn) [Example 283, (4S)-4-[[[(1S)-1-Carboxy-2-[4-[(2,6-dichlorobenzoyl)amino]phenyl]ethyl]amino]carbonyl]-2-(4-pyridinyl)-3-thiazolidinecarboxylic Acid 3-Ethyl Ester] reads 50 to 750 nM; that for `NC(=O)[C@H](Cc1ccc(OCc2c(Cl)cccc2Cl)cc1)NC(=O)[C@H]1CSCN1C(=O)OCCN1CCCC1` [Example 284], 50 to 750 nM.
Same read-out and setting: to `O=C(O)[C@H](Cc1ccc(OCc2c(Cl)cccc2Cl)cc1)NC(=O)[C@H]1CSCN1C(=O)OC1CCOC1` (stereo partly drawn) [Example 285, (4S)-4-[[[(1S)-1-Carboxy-2-[4-[(2,6-dichlorophenyl)methoxy]phenyl]ethyl]amino]carbonyl]-3-thiazolidinecarboxylic Acid 3-(3-Tetrahydrofuranyl)ester] belongs 50 to 750 nM; to `NC(=O)[C@H](Cc1ccc(OCc2c(Cl)cccc2Cl)cc1)NC(=O)[C@H]1CSCN1C(=O)OCCN1CCCCC1` [Example 286, (4S)-4-[[[(1S)-2-Amino-1-[[4-[(2,6-dichlorophenyl)methoxy]phenyl]methyl]-2-oxoethyl]amino]carbonyl]-3-thiazolidinecarboxylic Acid 3-[2-(1-Piperidinyl)ethyl]ester], 50 to 750 nM.
On the same count and under the same terms, the result for `CN1CCN(CCOC(=O)N2CSC[C@@H]2C(=O)N[C@@H](Cc2ccc(OCc3c(Cl)cccc3Cl)cc2)C(N)=O)CC1` [Example 287, (4S)-4-[[[(1S)-2-Amino-1-[[4-[(2,6-dichlorophenyl)methoxy]phenyl]methyl]-2-oxoethyl]amino]carbonyl]-3-thiazolidinecarboxylic Acid 3-[2-(4-Methyl-1-piperazinyl)ethyl]ester] reads 50 to 750 nM; that for `NC(=O)[C@H](Cc1ccc(NC(=O)c2c(Cl)cccc2Cl)cc1)NC(=O)[C@H]1CSCN1C(=O)OCCN1CCOCC1` [Example 288, (4S)-4-[[[(1S)-2-Amino-1-[[4-[(2,6-dichlorobenzoyl)amino]phenyl]methyl]-2-oxoethyl]amino]carbonyl]-3-thiazolidinecarboxylic Acid 3-[2-(4-Morpholinyl)ethyl]ester], no less than 750 nM.

The target of another experiment is T2, α4β1 integrin (Jurkat T-cell adhesion to IL-1 stimulated endothelial cell monolayers) (Homo sapiens, UniProt P05556+P13612).
T2 construct: a T-cell line, Jurkat, known to express the α4β1 integrin; host or cells: Jurkat T-cell line
T2 sequence (P13612 34-1032): as the sequence (P13612 34-1032) above
T2 sequence (P05556 21-798): as the sequence (P05556 21-798) above
In words: Jurkat-endothelial cell adhesion assay (Jurkat EC). It counts as cell-based. The conditions noted are these: Jurkat cells on IL-1 stimulated human umbilical vein endothelial cells; read-out: JK/EC (Jurkat EC Assay IC50 value range). How it is done: Jurkat-endothelial Cell Adhesion Assay:
The following assay established the activity of the present compounds in inhibiting β1-mediated cell adhesion in a representative in vitro system. This assay measures the adhesive interactions of a T-cell line, Jurkat, known to express the α4β1 integrin, to endothelial monolayers in the presence of test compounds. The test compounds were added in increasing concentrations to T-cells and then the T-cell compound mixture was added to IL-1 stimulated endothelial cell monolayers. The plates were incubated, washed and the percentage of attached cells was quantitated.
Human umbilical vein endothelial cells were purchased from Clonetics (San Diego, Calif.) at passage number 2. The cells were grown on 0.5% porcine skin gelatin pre-coated flasks (Sigma, St. Louis Mo.) in EGM-UV media (Clonetics, San Diego, Calif.) supplemented with 10% fetal bovine serum. Cells are refed every 2-3 days reaching confluence by day 4 to 6. […] The endothelial cells are not used following passage 6.
The T-cell line Jurkat was obtained from American Type Tissue Culture Collection (Rockville, Md.) and the cells were cultured in RPMI containing 10% fetal calf serum. The cells were washed twice in Hank's Balanced Salt Solution (HBSS) and resuspended in Dulbecco's Minimal Eagle's Media (DMEM) containing 2.5 mg/ml Human Serum Albumin (HSA). Jurkat cells (1×10^6 cells/ml) were stained with 10 ng/ml BCECF-AM (Molecular Probes, Eugene, Oreg.)) in HBSS without phenol red. The cells were loaded with BCECF for 60 minutes in the dark at 370C, washed 2 times, and resuspended in DMEM-HSA solution.
Confluent endothelial monolayers, grown in 96-well tissue culture plates, were stimulated for 4 hr. at 37° C. with 0.1 ng/ml (˜50 U/ml) recombinant IL-1 (Amgen, Thousand Oaks, Calif.). Following this incubation, the monolayers were washed twice with HBSS and 0.1 ml of DMEM−HSA solution was added. Jurkat cells (5×10^5 cells) were combined with the appropriate concentration of the test compound and 0.1 ml of the Jurkat cell-compound mixture was added to the endothelial cell monolayers. Generally, 100, 20, 5 and 1.25 μM compound concentrations were tested. […] The plates were placed on ice for 5 minutes to allow for Jurkat cell settling and the plates were incubated at 37° C. for 20 minutes. Following this incubation, the monolayers were washed twice with PBS containing 1 mM calcium chloride and 1 mM magnesium chloride and the plates were read using a Millipore Cytofluor 2300 (Marlboro, Mass.). Fluorescence in each well was measured as Arbitrary Fluorescence Units and percent adhesion in the absence of compound was adjusted to 100% and the % adhesion in the presence of compound was calculated. Monolayers were also fixed in 3% paraformaldehyde and evaluated microscopically to verify the adhesion. This procedure is a modification of a previously published method (Cardarelli et al., J. Biol. Chem. 269:18668-18673 (1994)).
Take `COC(=O)[C@H](Cc1ccc(NC(=O)c2c(Cl)cccc2Cl)cc1)NC(=O)[C@H]1CSCN1C(=O)OC(C)(C)C` (relative stereo) [Example 1, [S-(R*,R*)]-4-[[[1-[[4-[(2,6-Dichlorobenzoyl)amino]phenyl]methyl]-2-methoxy-2-oxoethyl]amino]carbonyl]-3-thiazolidinecarboxylic Acid 3-(1,1-Dimethylethyl)ester]: the IC50 was no less than 1000 nM.
Take `CCOC(=O)N1CSC[C@@H]1C(=O)N[C@@H](Cc1ccc(NC(=O)c2c(Cl)cccc2Cl)cc1)C(=O)OC` (relative stereo) [Example 4, [S-(R*,R*)]-4-[[[1-[[4-[(2,6-Dichlorobenzoyl)amino]phenyl]methyl]-2-methoxy-2-oxoethyl]amino]carbonyl]-3-thiazolidinecarboxylic Acid 3-Ethyl Ester]: the IC50 was no more than 250 nM.
The same measure, in the same setting: the result for `COC(=O)[C@H](Cc1ccc(OCc2c(Cl)cccc2Cl)cc1)NC(=O)[C@H]1CSCN1C(=O)OCCN1CCCCC1` (relative stereo) [Example 5, [S-(R*,R*)]-4-[[[1-[4-[(2,6-Dichlorophenyl)methoxy]phenyl)methyl]-2-methoxy-2-oxoethyl]amino]carbonyl]-3-thiazolidinecarboxylic Acid 3-[2-(1-piperidinyl)ethyl]ester] reads 250 to 1000 nM.
